Legend:
HepG2 cells = assay: Gene expression of HepG2 cells (quantitative PCR); type: cell-based; design: key to LSS gene expression / MVK gene expression / SREBP1 gene expression / SREBP2 gene expression / SCAP gene expression / SCD gene expression / MVD gene expression / ACACA gene expression / ACACB gene expression / ACLY gene expression / ACSS1 gene expression / ACSS2 gene expression / ELOVL6 gene expression / FASN gene expression / HMGCR gene expression: relative expression vs mock/vehicle (ΔΔCT, β-actin normalized); conditions: 500 nM, 48 hrs
Method: Gene Expression: The effect of selected compounds described herein on the gene expression of HepG2 cells was evaluated. HepG2 cells (P2) were seeded in 24 well plate (80,000 cells/well) for RNA extraction and in a 96 well plate (10,000 cells/well) for Cell Titer Glow (CTG). The media used was DMEM and contained 10% FBS. Each compound was evaluated at […] for 48 hours. Two biological replicates per experimental group were evaluated for RNA. For gene analysis, RNA was harvested with RNEasy kit and 20-100 ng used to synthesize cDNA with random primers. Quantitative PCR was performed on 1 pg to 100 ng cDNA for the following genes: ACACA, ACLY, FASN, LSS, PNPLA3. Gene expression levels were normalized with housekeeping gene, β-Actin, and relative expression levels determined using ΔΔCT method comparing treated to mock or vehicle treated cells as a baseline. “Total” gene expression refers to the average of the values of the 5 genes listed above.
The effect of Compound Z-725 on expression of the genes ACACA, ACACB, ACLY, ACSS1, ACSS2, ELOVL6, FASN, HMGCR, LSS, MVK, PNPLA3, SREBP1, SREBP2, SCAP, SCD, and MVD was evaluated, following the procedure described in Example 52.

[1] = tested on: liver gene expression (ACACA, ACLY, FASN, LSS, PNPLA3); assay: Liver gene expression in mice after oral administration; type: in vivo; conditions: vs vehicle
Method: (§1) The pharmacodynamic properties of selected compounds were evaluated in mice. The animals were housed in cages with clean bedding, and maintained and monitored for good health in accordance with Test Facility SOPs and at the discretion of the laboratory animal veterinarian. Certified rodent diet was provided. Food and water was available ad libitum. Environmental controls for the animal room were set to maintain a temperature of 22° C. to 25° C., humidity of 40-70% RH, and a 12-hour light/[…]. Normal healthy animals certified by the attending veterinarian were selected and acclimatized for minimum three days prior to initiation of study. Animals were identified with body markings.
(§2) Aliquots of the compounds being evaluated were weighed and triturated with 0.5% methylcellulose (with the addition of 5% N-methyl pyrrolidone when required to remove clumping, as for Z-806) to an appropriate dose concentration. Vials were labeled with the information about study number, test item, concentration and date of preparation. A description of appearance of formulation was recorded (e.g., color, turbidity, etc.). The composition of formulation vehicle was recorded. An aliquot of each dose solution was taken before the dosing began and after dosing was finished, and stored at approximately −20° C. or below for subsequent analysis. The animals were dosed orally through oral gavage needle, and time of dosing was recorded.
(§3) Liver Collection at 6 h or 24 h: Immediately after blood withdrawal for pharmacokinetic evaluation (at 6 or at 24 h), liver tissue was collected without perfusion. Animals were euthanized using carbon dioxide gas in a CO2 chamber. The whole blood was drained by cutting the both side jugular vein and abdominal aorta. The liver was separated out. All the liver samples were divided in two parts. The first part (200 mg approx.) was snap frozen using liquid nitrogen as soon as possible. These samples were immediately transferred to −80° C. for storage. The remaining part was weighed and used for bioanalysis.
RNA Processing and Gene Expression Analysis: Liver Tissue RNA was harvested with the RNEasy kit and 20-100 ng used to synthesize cDNA with random primers following the manufacturer's protocol. Quantitative PCR was performed on 1 pg to 100 ng cDNA for the following genes: ACACA, ACLY, FASN, LSS, PNPLA3. Gene expression levels were determined using ΔΔCT method comparing treated to vehicle treated samples as a baseline, and fold change calculated. The average value for all 5 genes above was averaged and termed to Total Fold Change The results from this evaluation are presented in Table 8.

[2] = Plasma and liver compound levels in mice after oral administration; type: in vivo
Method: as §1, §2
After dosing, the mice were anesthetized using gaseous anesthesia. Blood samples were collected through a capillary, guided in retro-orbital plexus, at 6 h or at 24 h. Approximately 100 uL of blood was collected from each mouse, in pre-labeled tubes. The collected blood was stored on ice prior to centrifugation. Blood samples were then centrifuged within 1 hour of collection to separate plasma. Centrifugation was conducted at 2500×g for 15 minutes at 4° C. The plasma was separated and transferred to pre-labeled micro-centrifuge tubes and promptly frozen at −80±10° C. until bioanalysis.
as §3

CC(C)(C)c1cc(-c2cncc(-c3ccc(C(=O)N4CCC(O)CC4)cc3Cl)c2)ccn1 [Compound Z-725]
ACACA gene expression (HepG2 cells): 0.4399 | ACACB gene expression (HepG2 cells): 0.5472 | ACLY gene expression (HepG2 cells): 0.3505 | ACSS1 gene expression (HepG2 cells): 0.2838 | ACSS2 gene expression (HepG2 cells): 0.4792 | ELOVL6 gene expression (HepG2 cells): 0.4432 | FASN gene expression (HepG2 cells): 0.2957 | HMGCR gene expression (HepG2 cells): 0.09282 | LSS gene expression (HepG2 cells): 0.2412 | MVD gene expression (HepG2 cells): 0.1984 | MVK gene expression (HepG2 cells): 0.05926 | PNPLA3 gene expression (HepG2 cells): 0.09989 | SCAP gene expression (HepG2 cells): 1.312 | SCD gene expression (HepG2 cells): 0.2009 | SREBP1 gene expression (HepG2 cells): 0.5489 | SREBP2 gene expression (HepG2 cells): 0.786 | Total Gene FC Time (6 h) ([1]; 10 mpk): +++ (0-0.509 = +++) | Total Gene FC Time (24 h) ([1]; 10 mpk): + (>0.751 = +) | Total Gene FC Time (6 h) ([1]; 30 mpk): +++ (0-0.509 = +++) | Total Gene FC Time (24 h) ([1]; 30 mpk): + (>0.751 = +) | Liver ng/mg (6 h) ([2]; 10 mpk): 100 to 1000 ng/mg | Plasma ng/mL (6 h) ([2]; 10 mpk): <100 ng/mL | Liver ng/mg 24 h ([2]; 10 mpk): 100 to 1000 ng/mg | Plasma ng/mL (24 h) ([2]; 10 mpk): <100 ng/mL | Liver ng/mg (6 h) ([2]; 30 mpk): 100 to 1000 ng/mg | Plasma ng/mL (6 h) ([2]; 30 mpk): 100 to 1000 ng/mL | Liver ng/mg 24 h ([2]; 30 mpk): <100 ng/mg | Plasma ng/mL (24 h) ([2]; 30 mpk): <100 ng/mL

— patent US11718628B2, “SREBP inhibitors comprising a 6-membered central ring” (Capulus Therapeutics, LLC, priority 2018, dated 2023)
